Results: US20080070866A1, “Chemical compounds” (Praecis Pharmaceuticals Incorporated, priority 2006, published 2008)
pIC50: −log10 of the molar value.

Target: T1, S1P-1 receptor (Homo sapiens, UniProt P21453)
T1 construct: expressed in transfected cells; host or cells: HEK 293 T cells (membrane preparation)
Assay: [33P]sphingosine 1-phosphate binding assay on membranes of transfected HEK 293 T cells
Conditions: [33P]S1P binding, receptor taken from context of b294
Method: In certain embodiments, the compounds of the invention selective for the S1P-1 receptor as compared to one or more of the other S1P receptors. For example, one set of compounds includes compounds which are selective for the S1P-1 receptor relative to the S1P-3 receptor. […] The EC50 of a compound is determined using the ^35S-GTPγS binding assay, as described in WO 03/061567, the entire contents of which are incorporated herein by reference. […] The IC50 of a compound is determined using the [^33P]sphingosine 1-phosphate binding assay, as described in Davis, M. D. et al., Sphingosine 1-Phosphate Analogs as Receptor Antagonists. J. Biol. Chem. (2005) 280:9833-9841, the entire contents of which are incorporated herein by this reference.
The terms “agonist” or “S1P-1 receptor agonist” as used herein include the compounds described herein which bind to and/or agonize the S1P-1 receptor. […] The compounds' IC50 for the S1P1 receptor can be measured using the binding assays described in Example 13 or those described in WO 03/061567.
The ability of several of the compounds described herein to bind to the S1P-1 or S1P-3 receptor was also tested as follows.
For the membrane preparation, plasmid DNA was transfected into HEK 293 T cells using the FuGENE 6 transfection protocol (publicly available from Roche). […] Protein concentration was determined spectroscopically by Bradford protein assay. […]

T1 sequence (P21453 whole entry): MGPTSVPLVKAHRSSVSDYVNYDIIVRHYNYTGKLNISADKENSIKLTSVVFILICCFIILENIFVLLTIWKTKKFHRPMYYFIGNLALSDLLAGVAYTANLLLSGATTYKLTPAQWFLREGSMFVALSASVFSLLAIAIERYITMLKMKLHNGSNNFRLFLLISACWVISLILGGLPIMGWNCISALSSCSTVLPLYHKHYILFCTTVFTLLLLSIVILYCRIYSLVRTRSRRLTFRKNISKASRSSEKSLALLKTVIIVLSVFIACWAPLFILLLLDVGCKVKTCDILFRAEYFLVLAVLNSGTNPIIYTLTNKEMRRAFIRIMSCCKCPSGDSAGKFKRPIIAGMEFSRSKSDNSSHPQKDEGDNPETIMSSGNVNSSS

pIC50: 8.66
Compound: CCCCCOCCOc1ccc(-c2nnc([C@@](C)(N)CO)s2)cc1C(F)(F)F
